The values below come from US8906911B2, “Chemokine receptor antagonists” (AbbVie Inc., priority 2012, dated 2014).

The subject of test [1] is CCR2. As to conditions: in vivo; cited from earlier work.
Test [2] concerns the target CCR2 (Rattus norvegicus (Rat), UniProt O55193). As to conditions: direct injection of MCP-1 in the spinal cord; cited from earlier work.
Test [3] concerns the target T1, human CCR2B (Homo sapiens (Human), UniProt P41597). Nature of the test: Inhibition of [125I]-labeled MCP-1 binding to hCCR2B (radioligand binding in CHO cells). As to conditions: mean Ki; [125I]-MCP-1 50 pM; CHO cells expressing human CCR2B and Gα16. The text has this: CHO cells expressing human CCR2B were generated as follows. cDNA for human CCR2B (cloned from human blood) was cloned into plasmid pcDNA3.1 (from Invitrogen). The resulting plasmids were separately transfected into CHO cells expressing human Gα16 (from Molecular Devices). […] CHO cells expressing rat CCR2 were generated as follows. cDNA for rat CCR2 (cloned from rat macrophage) was cloned into plasmid pEF-flag (from Chinese Academy of Science). The resulting plasmids were transfected into CHO cells expressing human Gα16 (from […]).
Inhibition of [^125I]-Labeled MCP-1 Binding to hCCR2B
Radioligand binding assays were performed in CHO cells expressing human CCR2B and Gα16 coupling protein. All compounds were dissolved in DMSO and assays run at a final DMSO concentration of 0.5% (v/v). [^125I]-labeled human MCP-1 was purchased from PerkinElmer. Unlabelled human MCP-1 was purchased from PeproTech.
Compounds were serially diluted in DMSO before diluting into assay buffer (25 mM HEPES, pH 7.4, 5 mM MgCl2, 1 mM CaCl2, 0.5% BSA) with cryo preserved CHO cells expressing human CCR2B and the Gα16 coupling protein (30×10^3/well) and [^125I]-MCP-1 (50 pM). The reaction was incubated at room temperature for 90 minutes before transferring to GF/C filter membrane (PerkinElmer) pre-treated with 0.3% polyethyleneimine for 2 hours at 4° C. The filter membrane was washed six times with ice cold wash buffer (25 mM HEPES, pH 7.4, 5 mM MgCl2, 1 mM CaCl2, 500 mM NaCl, 0.01% (m/v) azide), dried, and sealed in a RLB sample bag (Agilent Technologies) before adding 5.0 mL Microscint 20 to each bag. Membrane was counted on Microbeta counter where background binding was determined by the presence of 100 nM MCP-1 and control total binding was determined by addition of DMSO in place of the test compound. The radioactivity values (cpm) were used to calculate the percent inhibition at a given compound concentration and the data fit to a sigmoidal curve in a semi-log plot to determine IC50 values. The corresponding Ki value is calculated as follows:
Ki=IC50/(1+[radioligand]/Kd), where [radioligand] is the concentration of the label and Kd (dissociation constant) is determined in saturation experiment with different concentrations of labeled MCP-1.

The target in test [4] is rat CCR2 (Rattus norvegicus (Rat), UniProt O55193). The experiment in a line: Inhibition of native agonist (rat MCP-1)-induced intracellular calcium release, calcium flux assay in CHO cells expressing rat CCR2 and Gα16. It counts as cell-based. As to conditions: read-out: rCCR2 Kb. In outline:
(§1)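 Compound added to Calcium 4 dye-loaded adherent cells (dye loading 60 min, 37° C., HEPES pH 7.4 buffer with probenecid), then agonist: human MCP-1 at 2 nM final for hCCR2B cells, rat MCP-1 at 4 nM final for rCCR2 cells. FLIPR fluorescence change gave IC50. Kb=IC50/(1+[agonist]/EC50). Final DMSO 0.25%.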

Test [5] addresses T1, human CCR2B. Nature of the test: Inhibition of native agonist (human MCP-1)-induced intracellular calcium release, calcium flux assay in CHO cells expressing human CCR2B and Gα16. The test is classed as cell-based. As to conditions: for IC50: read-out: hCCR2B IC50; for Kb: read-out: hCCR2B Kb. An outline of the steps: as §1
Background: Calcium assays in cells follow changes in intracellular calcium, usually with a dye or a luminescent sensor.

Read-outs that look alike come from different tables or passages of the source.

T1 sequence (P41597 other isoform, or with tags, fused parts or gaps): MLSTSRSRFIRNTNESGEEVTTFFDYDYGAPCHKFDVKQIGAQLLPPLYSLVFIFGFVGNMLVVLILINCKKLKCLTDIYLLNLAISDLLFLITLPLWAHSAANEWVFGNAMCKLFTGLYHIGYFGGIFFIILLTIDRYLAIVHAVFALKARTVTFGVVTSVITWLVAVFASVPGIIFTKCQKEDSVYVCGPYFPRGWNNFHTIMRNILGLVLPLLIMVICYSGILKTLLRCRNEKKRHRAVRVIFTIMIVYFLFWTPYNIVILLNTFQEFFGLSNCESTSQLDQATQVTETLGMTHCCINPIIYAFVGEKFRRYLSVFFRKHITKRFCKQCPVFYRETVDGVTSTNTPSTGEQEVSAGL
rat CCR2, sequence (O55193 whole entry): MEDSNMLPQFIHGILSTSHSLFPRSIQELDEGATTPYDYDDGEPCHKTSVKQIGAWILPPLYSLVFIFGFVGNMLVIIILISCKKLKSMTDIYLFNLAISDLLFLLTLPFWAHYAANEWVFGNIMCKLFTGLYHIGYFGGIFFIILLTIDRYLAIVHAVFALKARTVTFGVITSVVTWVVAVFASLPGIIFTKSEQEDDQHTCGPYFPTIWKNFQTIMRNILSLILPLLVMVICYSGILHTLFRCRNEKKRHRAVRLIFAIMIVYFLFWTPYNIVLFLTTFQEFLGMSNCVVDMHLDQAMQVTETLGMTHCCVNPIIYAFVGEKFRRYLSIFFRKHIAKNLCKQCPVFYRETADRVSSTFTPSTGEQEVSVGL
CCR2 (Rattus norvegicus (Rat), UniProt O55193), sequence (O55193 whole entry): as above

As for `O=C1Nc2ccccc2C2(CCN(CCc3ccc(C(F)(F)F)cc3)CC2)O1` [RS102895], in test [1], the “hyperalgesia induced by MCP-1 injection in the RVM” value was “reversed”.
Turning to `CCO[C@H]1CN(C2CCC(O)(c3ccc4c(c3)OCO4)CC2)C[C@@H]1NC(=O)CNC(=O)c1cccc(C(F)(F)F)c1` (some centres unmarked) [INCB3344], in test [2], the “MCP-1 induced pronociception (thermal hyperalgesia and mechanical allodynia)” value is on record as “blocked”.
Usually Ki stands for the equilibrium dissociation constant of an inhibitor or competing ligand from its target. The low end stands for a stronger hold on the target, the high end for a looser hold on the target. As usually defined, the IC50 is the midpoint of a concentration-inhibition curve. The molecule `CO[C@@H]1COCC[C@@H]1N[C@@H]1C[C@H]2CCC[C@@]2(C(=O)N2C[C@@H]3C[C@H]2CN3c2cc(C(F)(F)F)ccc2C(F)(F)F)C1` [Example 50, 1,5-anhydro-3-{[(2R,3aR,6aR)-3a-({(1S,4S)-5-[2,5-bis(trifluoromethyl)phenyl]-2,5-diazabicyclo[2.2.1]hept-2-yl}carbonyl)octahydropentalen-2-yl]amino}-2,3-dideoxy-4-O-methyl-D-erythro-pentitol] showed a Ki in test [3] of 78 nM. Moreover, in test [4], the Kb stood at 6 nM. Besides, in test [5], the IC50 is 25.9 nM and the Kb stood at 6 nM.
As to `CC[C@@H]1COCC[C@@H]1N[C@@H]1C[C@H]2CCC[C@@]2(C(=O)N2C[C@@H]3C[C@H]2CN3c2cc(C(F)(F)F)ccn2)C1` [Example 65, [(2R,3aR,6aR)-2-{[(3S,4S)-3-ethyltetrahydro-2H-pyran-4-yl]amino}hexahydropentalen-3a(1H)-yl]{(1S,4S)-5-[4-(trifluoromethyl)pyridin-2-yl]-2,5-diazabicyclo[2.2.1]hept-2-yl}methanone], the inhibition constant Ki in test [3] was 6 nM. Besides, the Kb in test [4] is 8 nM. Moreover, in test [5], the IC50 came out at 28 nM and the Kb came to 7 nM.
On to `CO[C@@H]1COCC[C@@H]1N(C)[C@@H]1C[C@H]2CCC[C@@]2(C(=O)N2C[C@@H]3C[C@H]2CN3c2ccc(C#N)c(C(F)(F)F)c2)C1` [Example 56, 1,5-anhydro-3-{[(2R,3aR,6aR)-3a-({(1S,4S)-5-[4-cyano-3-(trifluoromethyl)phenyl]-2,5-diazabicyclo[2.2.1]hept-2-yl}carbonyl)octahydropentalen-2-yl](methyl)amino}-2,3-dideoxy-4-O-methyl-D-erythro-pentitol], for which, in test [3], the affinity, expressed as Ki, was 32 nM. Also, the Kb in test [4] was found to be 9 nM; in test [5], 11 nM. Moreover, in test [5] (calcium flux, human MCP-1 2 nM), the IC50 stood at 46 nM.
In test [3], `CO[C@@H]1COCC[C@@H]1N[C@@H]1C[C@H]2CCC[C@@]2(C(=O)N2C[C@@H]3C[C@H]2CN3c2cccc(OC(F)(F)F)c2)C1` [Example 29, 1,5-anhydro-2,3-dideoxy-4-O-methyl-3-{[(2R,3aR,6aR)-3a-({(1S,4S)-5-[3-(trifluoromethoxy)phenyl]-2,5-diazabicyclo[2.2.1]hept-2-yl}carbonyl)octahydropentalen-2-yl]amino}-D-erythro-pentitol] had a Ki of 473 nM. In addition, the Kb came out at 8 nM in test [4] and 36 nM in test [5]. The IC50 in test [5] (calcium flux, human MCP-1 2 nM) came to 148 nM.
In the case of `CO[C@@H]1COCC[C@@H]1N(C)[C@@H]1C[C@H]2CCC[C@@]2(C(=O)N2C[C@@H]3C[C@H]2CN3c2cc(C(F)(F)F)ccc2C(F)(F)F)C1` [Example 52, 1,5-anhydro-3-{[(2R,3aR,6aR)-3a-({(1S,4S)-5-[2,5-bis(trifluoromethyl)phenyl]-2,5-diazabicyclo[2.2.1]hept-2-yl}carbonyl)octahydropentalen-2-yl](methyl)amino}-2,3-dideoxy-4-O-methyl-D-erythro-pentitol], in test [3], the Ki worked out at 49 nM. Further, the Kb in test [4] worked out at 38 nM. Also, in test [5], the IC50 stood at 83.9 nM and the Kb turned out to be 21 nM.
Turning to `CO[C@@H]1COCC[C@@H]1N[C@@H]1C[C@H]2CCC[C@@]2(C(=O)N2C[C@@H]3C[C@H]2CN3c2cc(F)cc(C(F)(F)F)c2)C1` [Example 25, 1,5-anhydro-2,3-dideoxy-3-{[(2R,3aR,6aR)-3a-({(1S,4S)-5-[3-fluoro-5-(trifluoromethyl)phenyl]-2,5-diazabicyclo[2.2.1]hept-2-yl}carbonyl)octahydropentalen-2-yl]amino}-4-O-methyl-D-erythro-pentitol], in test [3], affinity was put at a Ki of 271 nM. The Kb in test [4] turned out to be 5 nM; in test [5], 23 nM. Also, the IC50 in test [5] (calcium flux, human MCP-1 2 nM) was 92.2 nM.
`CO[C@@H]1COCC[C@@H]1N[C@@H]1C[C@H]2CCC[C@@]2(C(=O)N2C[C@@H]3C[C@H]2CN3c2cc(C#N)ccc2C(F)(F)F)C1` [Example 36, 1,5-anhydro-3-{[(2R,3aR,6aR)-3a-({(1S,4S)-5-[5-cyano-2-(trifluoromethyl)phenyl]-2,5-diazabicyclo[2.2.1]hept-2-yl}carbonyl)octahydropentalen-2-yl]amino}-2,3-dideoxy-4-O-methyl-D-erythro-pentitol] registered a Ki in test [3] of 1060 nM. For the same molecule, the Kb in test [4] is 24 nM; in test [5], 75 nM. Further, the IC50 in test [5] (calcium flux, human MCP-1 2 nM) is 305 nM.
Take `C[C@@H]1COCC[C@@H]1N[C@@H]1C[C@H]2CCC[C@@]2(C(=O)N2C[C@@H]3C[C@H]2CN3c2cc(C(F)(F)F)ccn2)C1` [Example 63, [(2R,3aR,6aR)-2-{[(3S,4S)-3-methyltetrahydro-2H-pyran-4-yl]amino}hexahydropentalen-3a(1H)-yl]{(1S,4S)-5-[4-(trifluoromethyl)pyridin-2-yl]-2,5-diazabicyclo[2.2.1]hept-2-yl}methanone]: in test [3], the Ki was found to be 10 nM. The values for the Kb in test [4] and in test [5] were 6 nM and 4 nM, respectively. The IC50 in test [5] (calcium flux, human MCP-1 2 nM) stood at 17.9 nM.
Molecule `CO[C@@H]1COCC[C@@H]1N(C)[C@@H]1C[C@H]2CCC[C@@]2(C(=O)N2C[C@@H]3C[C@H]2CN3c2ccc(Cl)c(C(F)(F)F)c2)C1` [Example 51, 1,5-anhydro-3-{[(2R,3aR,6aR)-3a-({(1S,4S)-5-[4-chloro-3-(trifluoromethyl)phenyl]-2,5-diazabicyclo[2.2.1]hept-2-yl}carbonyl)octahydropentalen-2-yl](methyl)amino}-2,3-dideoxy-4-O-methyl-D-erythro-pentitol] had an inhibition constant Ki in test [3] of 21 nM. Also, the Kb in test [4] was 29 nM; in test [5] it was 11 nM. Moreover, the IC50 in test [5] (calcium flux, human MCP-1 2 nM) was determined as 43.3 nM.
